Test results from PMC4514850, “A Novel TGR5 Activator WB403 Promotes GLP-1 Secretion and Preserves Pancreatic β-Cells in Type 2 Diabetic Mice” (PLoS ONE, 2015).
Entries after “also recorded” stand apart in the source; their conditions may differ.

How the values were obtained:
db/db mice [1] = assay: pancreas histology (H&E, IHC) of treated db/db mice; assay type: in vivo
Experimental: Analysis of islet cell mass was performed using conventional methods. In brief, mice were sacrificed by cervical dislocation. The body part of the pancreas was rapidly excised, fixed in 10% neutral buffered formalin solution for 24 h and embedded in paraffin, then sectioned at 5 μm ready for hematoxylin and eosin (H&E) staining and immunohistochemistry staining (IHC). The latter was carried out using rabbit anti-insulin polyclonal antibody (Cat. no. 4590, 1:600) and rabbit anti-glucagon monoclonal antibody (Cat. no. 8233s, 1:200) from Cell Signaling Technology.
Fig 5 WB403 preserved the mass of pancreatic β-cells and normal distribution of α and β-cells. (A) H&E staining of pancreas from db/db mice, and statistical result. Islets were sized by the Image J analysis software on alternated pancreatic sections spaced each by 100 μm. (B) Immunohistochemical analysis of pancreatic sections by anti-insulin antibody or anti-glucagon antibody. (C) H&E staining of pancreas from HFD/STZ mice, and statistical result. Results are representative islets from each group. 1–5 in the column graph on the right represents normal mice, diabetic mice treated with vehicle, WB403 50 mg/kg, WB403 100 mg/kg, sitagliptin 100 mg/kg respectively (n = 5). *p<0.05, **p<0.01, ***p<0.001 vs. diabetes-vehicle group.

hGPR120 = molecular target: T1, hGPR120 (Homo sapiens, UniProt Q5NUL3); assay: GPR120-dependent calcium mobilization in transfected 293 cells; assay type: cell-based; details: 10 or 100 μmol/l
T1 construct: expressed in transfected cells; host or cells: 293 cells, transient transfection with a human GPR120 expression vector
T1 sequence (Q5NUL3 1-361): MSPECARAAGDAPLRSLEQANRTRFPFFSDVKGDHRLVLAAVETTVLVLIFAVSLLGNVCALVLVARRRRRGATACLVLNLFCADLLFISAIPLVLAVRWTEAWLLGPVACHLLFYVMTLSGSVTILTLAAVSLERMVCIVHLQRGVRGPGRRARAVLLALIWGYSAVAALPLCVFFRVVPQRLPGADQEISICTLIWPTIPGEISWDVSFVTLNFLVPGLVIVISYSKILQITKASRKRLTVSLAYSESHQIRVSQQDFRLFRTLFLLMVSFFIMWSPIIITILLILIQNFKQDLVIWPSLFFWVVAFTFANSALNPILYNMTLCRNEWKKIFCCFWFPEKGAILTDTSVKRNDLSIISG
Experimental: For human TGR5 luciferase (luc) assay, 293T cells were co-transfected with pCRE-luc, pTGR5 (kind gift from Prof. Johan Auwerx, Ecole Polytechnique Fédérale de Lausanne, Lausanne, Switzerland) and pRenilla (Promega, USA). WB403 was added 5 h later. Cells were harvested after 16 h and subjected to luciferase analysis on Lumistar Optima chemiluminescent detector (BMG labtech, Germany). For cAMP testing, 293T cells transiently transfected with pTGR5 or pGPR119 (GeneCopoeia, USA) were washed by FBS-free DMEM, and stimulated with WB403 in FBS-free DMEM containing 3-isobutyl-1-methyl-xanthine (IBMX, Sigma). Cell lysates were collected 30 min later and used for cAMP ELISA assay. FLIPR Calcium 5 assay kit (Molecular Devices, USA) was used for calcium mobilization assay. 293-GPR40 stable cells (kindly provided by Prof. Naiming Zhou of Zhejiang University, Hanzhou, China) or 293 cells transient transfected with GPR120 were seeded at 50,000 cells per well in black-walled clear-bottomed 96-well plates (Costar). An equal volume of loading buffer containing Fluo 4-AM was added the following day and cells were incubated for 1 h before stimulated with compounds. Increase of the intracellular Ca^2+ concentration was monitored by Flexstation 3 system (Molecular Devices, USA).
Fig 6 Effect of WB403 on GPCRs related to GLP-1 secretion. (A) GPCR expression in human NCI-H716 and mouse MIN6 cells. […]

db/db mice [2] = assay: 4-week treatment of db/db mice; assay type: in vivo
Experimental: Five-week old male ICR mice and db/db (C57BL BKS cg-M+/+ lepr-/-) mice were purchased from Shanghai SLAC Laboratory Animal Co., Ltd. (Shanghai, China). Mice were housed 4–5 per cage and allowed access to normal chow diet and autoclaved water freely. They were fed at a constant room temperature (25°C) with a 12-h light (7:00 AM)/dark (7:00 PM) cycle. All the mice were monitored at least daily, and no adverse events were observed. In general, the db/db mice show a high food intake at 4-week old and become obese and develop type 2 diabetes at 8-week age. Postprandial 2 h blood glucose was assessed and mice with the similar degree of hyperglycemia and body weight were randomized into different groups in order to get a similar average PBG in each group.
Diabetic mice in group of four were treated by gavage with vehicle (0.5% carboxymethylcellulose, CMC, Sigma), WB403 50, 100 mg/kg or sitagliptin at 100 mg/kg daily for 4 weeks in db/db mice (n = 5 with chow diet), and 8 weeks in HFD/STZ mice (n = 8 with HFD, additional normal mice group with chow diet). During the entire dosing period, body weight, food intake and water intake were monitored three times per week, while FBG and PBG were measured weekly. Overnight fasted mice received an oral glucose challenge at 2 g/kg and postprandial 2 h blood glucose was measured. Animals were treated and assessed in the order of the vehicle, WB403 50, 100 mg/kg and sitagliptin 100 mg/kg group.
Fig 3 Effects of WB403 treatment in db/db mice. (A, B) FBG and PBG measured every week during the 4-week treatment period. (C, D) Serum levels of HbA1c, measured at the end of intervention by Adicon Clinical Laboratories (Shanghai, China) using an immunoturbidimetric assay on Beckman AU680 biochemical analyzer. (E) Average daily food intake per mouse during the treatment period. Data was collected three times per week. (F) Average daily water intake per mouse. (G) Body weight from different groups of mice. (H) Serum levels of insulin were measured at the end of intervention. Values are mean ± SEM (n = 5). *p<0.05, **p<0.01, ***p<0.001 vs. vehicle group.

[3] = db/db mice, 50, 100 mg/kg daily by gavage, after one week
[4] = db/db mice, end of 4-week treatment

CCc1cc(-c2nc(C)c(COCc3ccc(Br)cc3)s2)ccn1 [WB403, 4-(5-((4-bromobenzyloxy)-methyl)-4-methylthiazol-2-yl)-2-ethylpyridine]
islet area vs vehicle (db/db mice [1]; H&E, after 4-week treatment): bigger islet area as compared to the vehicle mice, though no significant difference was found
α-cell and β-cell distribution in islets (db/db mice [1]; IHC anti-insulin / anti-glucagon): significantly reduced α-cell in the islet core area and restored the normal cell distribution pattern
hGPR120-Ca2+ activation (calcium mobilization) (hGPR120): neither did it exhibit significant effect; also recorded: no significant effect
body weight (db/db mice [2]; db/db mice, 4-week treatment): did not vary significantly
food intake (db/db mice [2]; db/db mice, 4-week treatment): did not vary significantly
water intake (db/db mice [2]; db/db mice, 4-week treatment): decreased
FBG vs vehicle (db/db mice [2]; [3]): significantly decreased
PBG vs vehicle (db/db mice [2]; [3]): significantly decreased
HbA1c levels vs vehicle (db/db mice [2]; [4]): significantly lower
serum insulin levels (db/db mice [2]; [4]): higher insulin levels
